Data set [1] deals with IL-2 production in Jurkat cells. The experiment in a line: cells. It is filed as cell-based, human. As to conditions: for pIC50: read-out: immunosuppression IL-2 (IC50).
The nature of the next data set: in vitro. The conditions noted are these: human.
The subject of data set [2] is Human T cell lymphoma (Jurkat) cells.

pEC50, pIC50: −log10 of the molar value. Where two headings read alike, the source gives them in different places.

On to `CC(C)[C@]1(O)[C@H](Cl)[C@@H]2O[C@]23[C@@]2(OC(=O)O[C@H]12)[C@H](Cl)C[C@H]1C2=C(CC[C@@]13C)C(=O)OC2` [PG757], for which the “inhibition of IL-2 production” value in data set [1] is listed as “inhibited IL-2 production”. Further, the negative-log IC50 (pIC50) in data set [1] (Homo sapiens, Jurkat, 24 h) is 8.05. This molecule also gave a pEC50 in the data set “in vitro” of 7.49. In data set [2], the “cytotoxicity in MTT assay compared with triptolide” value is listed as “significantly more cytotoxic” and the “cytotoxicity to Jurkat cells” value is “cytotoxic to Jurkat cells”.
On to `CC(C)[C@]12O[C@H]1[C@@H]1O[C@]13[C@@]1(OC(=O)O[C@H]21)[C@H](Cl)C[C@H]1C2=C(CC[C@@]13C)C(=O)OC2` [PG762], for which the “inhibition of IL-2 production” value in data set [1] is reported as “inhibited IL-2 production”. Moreover, the negative-log IC50 (pIC50) in data set [1] (Homo sapiens, Jurkat, 24 h) is 8.05. The molecule also gave a pEC50 in “in vitro” of 7.22. In data set [2], the “cytotoxicity in MTT assay compared with triptolide” value is on record as “comparable potency” and the “cytotoxicity to Jurkat cells” value is reported as “cytotoxic to Jurkat cells”.
With `CC(C)[C@]12O[C@H]1[C@@H]1O[C@]13[C@]1(O[C@H]1C[C@H]1C4=C(CC[C@@]13C)C(=O)OC4)[C@@H]2OC(=O)C(=O)O[C@@H]1[C@@]2(C(C)C)O[C@H]2[C@@H]2O[C@]23[C@]12O[C@H]2C[C@H]1C2=C(CC[C@@]13C)C(=O)OC2` [PG782], in data set [1], the “inhibition of IL-2 production” value was “inhibited IL-2 production”. Also, in data set [1] (Homo sapiens, Jurkat, 24 h), the pIC50 was 8.70. In addition, the pEC50 in “in vitro” was 7.28. Further, in data set [2], the “cytotoxicity in MTT assay compared with triptolide” value is listed as “more potent than triptolide” and the “cytotoxicity to Jurkat cells” value is recorded as “cytotoxic to Jurkat cells”.
As for triptolide [PG490, reference compound], the negative logarithm of the IC50 (pIC50) in data set [1] (Jurkat cells stimulated with PMA and PHA, 24 hrs, test compounds incubated in serum for 24 hrs) is 8.40. The pEC50 in data set [2] (read-out: Viability/Cytotoxicity MTT (ED50), Jurkat cells, 24 h culture, test compounds incubated in serum for 24 hrs) was 7.22.

These data come from US8268882B2 (priority 2009, dated 2012).
